Assay results: patent publication US11717508B2, “Compounds, compositions, and methods for inhibiting bacterial growth” (priority 2016, dated 2023)
“Also recorded” adds a separate entry of the source. Read-outs that look alike come from different tables or passages of the source.

How the values were obtained:
[1] = tested on: DosR regulon genes (dosR, hspX and tgs1); assay: RT-PCR of DosR regulon genes under hypoxia; assay type: cell-based, Mycobacterium tuberculosis; conditions: 6 days
[2] = molecular target: T1, DosS (Mycobacterium tuberculosis, UniProt P9WGK3); assay: LC-MS analysis of DosS reaction samples for heme-artemisinin adducts; assay type: biochemical; conditions: DosS treated with artemisinin vs DMSO
[3] = tested on: DosR regulon genes (dosR, hspX and tgs1); assay: NO and vitamin C sensitivity assays (RT-PCR); assay type: cell-based, Mycobacterium tuberculosis
[4] = tested on: Mtb; assay: microbe, parasite or virus in culture; assay type: cell-based; conditions: Mycobacterium tuberculosis, read-out: growth inhibition EC50
[5] = molecular target: T1, DosS; assay type: biochemical
[6] = molecular target: T1, DosS; assay: DosS autophosphorylation assay; assay type: biochemical
[7] = tested on: CDC1551(hspX′:GFP) reporter; assay: microbe, parasite or virus in culture; assay type: cell-based, Mycobacterium tuberculosis; conditions: for EC50: Mycobacterium tuberculosis, read-out: EC50 of inhibition of CDC1551(hspX′:GFP) reporter (dosR-dependent GFP) fluorescence
[8] = molecular target: DosT (Mycobacterium tuberculosis, UniProt P9WGK1); assay: DosT autophosphorylation assay; assay type: biochemical
[9] = tested on: Mtb Erdman; conditions: ERDMAN, 360 h

T1 sequence (P9WGK3 whole entry): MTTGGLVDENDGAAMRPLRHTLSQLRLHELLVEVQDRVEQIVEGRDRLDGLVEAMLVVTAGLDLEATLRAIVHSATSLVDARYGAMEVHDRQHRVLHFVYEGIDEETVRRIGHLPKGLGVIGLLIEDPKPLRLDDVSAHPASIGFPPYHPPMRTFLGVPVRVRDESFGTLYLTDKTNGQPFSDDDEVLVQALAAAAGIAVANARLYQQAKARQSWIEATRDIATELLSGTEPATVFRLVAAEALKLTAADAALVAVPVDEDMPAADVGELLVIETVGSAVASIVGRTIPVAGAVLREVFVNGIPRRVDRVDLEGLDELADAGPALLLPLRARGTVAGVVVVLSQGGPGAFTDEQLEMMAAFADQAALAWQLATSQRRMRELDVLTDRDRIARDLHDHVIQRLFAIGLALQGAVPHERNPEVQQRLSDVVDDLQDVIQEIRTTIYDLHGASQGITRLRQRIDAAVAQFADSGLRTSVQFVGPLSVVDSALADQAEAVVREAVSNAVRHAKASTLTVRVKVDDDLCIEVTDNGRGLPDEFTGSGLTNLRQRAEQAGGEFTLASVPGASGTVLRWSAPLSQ
Chain of DosT (P9WGK1 whole entry): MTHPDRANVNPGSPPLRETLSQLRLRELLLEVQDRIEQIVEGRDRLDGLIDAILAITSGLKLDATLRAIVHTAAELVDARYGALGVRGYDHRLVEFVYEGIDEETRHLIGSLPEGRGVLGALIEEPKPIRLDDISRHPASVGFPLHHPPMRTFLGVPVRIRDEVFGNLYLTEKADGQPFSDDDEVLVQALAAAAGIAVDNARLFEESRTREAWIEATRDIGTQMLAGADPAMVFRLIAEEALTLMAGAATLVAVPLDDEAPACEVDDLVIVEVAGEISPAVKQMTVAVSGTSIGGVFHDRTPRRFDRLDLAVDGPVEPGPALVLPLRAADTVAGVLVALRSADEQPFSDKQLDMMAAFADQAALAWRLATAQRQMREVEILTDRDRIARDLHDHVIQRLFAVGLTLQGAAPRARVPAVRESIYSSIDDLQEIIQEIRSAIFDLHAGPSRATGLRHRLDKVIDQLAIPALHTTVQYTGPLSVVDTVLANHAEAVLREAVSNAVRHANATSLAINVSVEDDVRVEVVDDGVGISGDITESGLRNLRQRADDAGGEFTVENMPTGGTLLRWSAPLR

## C[C@@H]1CC[C@H]2[C@@H](C)C(=O)O[C@@H]3O[C@]4(C)CC[C@@H]1[C@]32OO4 [HC101A, artemisinin, reference compound]
[1]
  inhibition of dosRS (real-time PCR): 37 fold
  inhibition of hspX (real-time PCR): 51 fold
  inhibition of tgs1 (real-time PCR): 166 fold
[2]
  formation of heme-artemisinin adducts (LC-MS): alkylates the sensor kinase heme to form heme-artemisinin adducts

## C[C@@H]1CC(C)(C)C[C@]2(C1)NC(=O)NC2=O (racemic) [HC102A, 7,7,9-trimethyl-1,3-diazaspiro[4.5]decane-2,4-dione]
[3]; 80 μM pretreatment 24 h, 50 μM DETA-NONOate 2 h
  repression of tgs1 transcript following treatment with DETA-NONOate: 3 fold
[3]; 80 μM pretreatment 24 h, 2 mM vitamin C 2 h
  repression of tgs1 transcript in vitamin C treated cells: 2 fold
[3]; pretreatment 24 h, induction 2 h
  inhibition of induction of DosR regulon (dosR, hspX, tgs1) by NO and vitamin C: strongly inhibited the induction; also recorded: inhibited the induction of DosR regulon
[4]; 6 days, optical density, unit given as M
  EC50: > 80 µM
[5]; UV-visible spectra vs DMSO control
  effect on redox status of DosS heme: no impact on the redox status; also recorded: no effect in modulating redox status of DosS
[6]; 1 hour incubation, read-out: IC50 of inhibition of DosS autophosphorylation
  IC50: 1.9 µM
[6]; dose response
  maximal inhibition of DosS autophosphorylation: ~60%
[7]
  activity of compound regenerated by organic synthesis: confirmed to have the activity of the commercially sourced compounds
[7]; 6 days of treatment
  EC50: 12.4 µM
[8]; dose response, 1 hour
  impact on DosT autophosphorylation: limited impact

## O=C(Nc1cccc(O)c1)c1cccc(NC(=O)c2cccs2)c1 [HC103A, N-[3-[(3 hydroxyphenyl)carbamoyl]phenyl]thiophene-2-carboxamide]
[9]
  reduction of Mtb viability when treated with 5 μM INH: ~50%
[3]
  inhibition of induction of DosR regulon (dosR, hspX, tgs1) by NO and vitamin C: strongly inhibited the induction; also recorded: inhibited the induction of DosR regulon
  repression of tgs1 transcript following treatment with DETA-NONOate: 50 fold
  repression of tgs1 transcript in vitamin C treated cells: 3 fold
[4]; […]
  EC50: > 80 µM
[5]
  effect on redox status of DosS heme: no impact on the redox status; also recorded: no effect in modulating redox status of DosS
[6]
  IC50: 0.5 µM
  maximal inhibition of DosS autophosphorylation: ~90%
[7]
  activity of compound regenerated by organic synthesis: confirmed to have the activity of the commercially sourced compounds
[7]; […]
  EC50: 2.7 µM
[8]
  IC50: ~5 µM
